The nature of the data set: recombinant barcode read abundance after kanamycin selection (control-corrected) (log10(CPM+1)); higher = more efficient recombination; sequences stand for … in AGTGCAGAGAAAATCGGCCAGTTTTCTCTGCCTGCAGTCCGCATGCCGT…AGATTTATGCAGCGGACTGCCTTTCTCCCAAAGTGATAAACCGGACAGTATCATGGACCGGTTTTCCCGGTAATCCGTATTTGCAAGGTTGGTTTCACT; site = the 11-nt target. In a few lines: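 Targets were screened in pooled form in E. coli against IS621 bridge RNA target-binding loops. Recombination efficiency is based on barcode counts at recombinant junctions in counts per million, averaged and corrected for the control. Numbers are shown as log10(CPM+1), with duplicate plates on chloramphenicol/ampicillin LB agar (control) or chloramphenicol/ampicillin/kanamycin with 0.1 mM IPTG.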
As to “AGCTTACCTTGGGTTCTAACCTGTTGCCT (site CGCTTACCTAG)”, the “recombinant barcode read abundance (log10)” value was determined as 0.212.

On to “AGCTTACCTTGGGTTCTAACCTGTTGCCT (site GGCTTACCTAG)”, for which the “recombinant barcode read abundance (log10)” value stood at 0.105.

Turning to “AGCTTACCTTGGGTTCTAACCTGTTGCCT (site TGCTTACCTAG)”, the “recombinant barcode read abundance (log10)” value worked out at 0.0503.

With “AGCTTAGCTTGGGTTCTAACCTGTTGCCC (site AGCTTAGCTAG)”, the “recombinant barcode read abundance (log10)” value was found to be 0.306.

As to “AGCTTAGCTTGGGTTCTAACCTGTTGCCC (site AGCTTAGCTCG)”, the “recombinant barcode read abundance (log10)” value is 0.0502.

Consider “AGCTTAGCTTGGGTTCTAACCTGTTGCCC (site AGCTTAGCTGG)”, for which the “recombinant barcode read abundance (log10)” value worked out at 0.395.

As to “AGCTTAGCTTGGGTTCTAACCTGTTGCCC (site AGCTTAGCTTG)”, the “recombinant barcode read abundance (log10)” value stood at 0.0493.

Consider “AGCTTGCCTTGGGTTCTAACCTGTTGCAG (site AGCTTGCCTCT)”, for which the “recombinant barcode read abundance (log10)” value came to 0.717.

As for “AGCTTGCCTTGGGTTCTAACCTGTTGCAG (site CATAGCGCTAG)”, the “recombinant barcode read abundance (log10)” value was 0.277.

For the sequence “AGCTTTGCTTGGGTTCTAACCTGTTGCCT (site AGCATTGCTAG)”, the “recombinant barcode read abundance (log10)” value stood at 0.015.

Take “AGCTTTGCTTGGGTTCTAACCTGTTGCCT (site AGCCTTGCTAG)”: the “recombinant barcode read abundance (log10)” value is 0.171.

Consider “AGCTTTGCTTGGGTTCTAACCTGTTGCCT (site AGCGTTGCTAG)”, for which the “recombinant barcode read abundance (log10)” value was determined as 0.669.

As to “AGCTTTGCTTGGGTTCTAACCTGTTGCCT (site AGCTTTGCTAG)”, the “recombinant barcode read abundance (log10)” value worked out at 0.0693.

Regarding “AGGAACCCTTGGGTTCTAACCTGTTGCTG (site AGGAACCCTAA)”, the “recombinant barcode read abundance (log10)” value turned out to be 0.712.

Turning to “AGGAACCCTTGGGTTCTAACCTGTTGCTG (site AGGAACCCTCA)”, the “recombinant barcode read abundance (log10)” value turned out to be 1.78.

Take “AGGAACCCTTGGGTTCTAACCTGTTGCTG (site AGGAACCCTGA)”: the “recombinant barcode read abundance (log10)” value stood at 0.106.

As for “AGGAACCCTTGGGTTCTAACCTGTTGCTG (site AGGAACCCTTA)”, the “recombinant barcode read abundance (log10)” value worked out at 0.08.

As to “AGGACGACTTGGGTTCTAACCTGTTGCCT (site AGCGCGACTAG)”, the “recombinant barcode read abundance (log10)” value stood at 0.0505.

Regarding “AGGACGACTTGGGTTCTAACCTGTTGCCT (site AGGACGACTAG)”, the “recombinant barcode read abundance (log10)” value came out at 0.376.

As for “AGGAGAACTTGGGTTCTAACCTGTTGCCT (site AGCATAACTAG)”, the “recombinant barcode read abundance (log10)” value was 0.447.

Consider “AGGAGAACTTGGGTTCTAACCTGTTGCCT (site AGGAGAACTAG)”, for which the “recombinant barcode read abundance (log10)” value worked out at 1.35.

As for “AGGAGCCCTTGGGTTCTAACCTGTTGCTC (site AGGAGCCCTAA)”, the “recombinant barcode read abundance (log10)” value was determined as 0.124.

As to “AGGAGCCCTTGGGTTCTAACCTGTTGCTC (site AGGAGCCCTCA)”, the “recombinant barcode read abundance (log10)” value was determined as 0.152.

In the case of “AGGAGCCCTTGGGTTCTAACCTGTTGCTC (site AGGAGCCCTGA)”, the “recombinant barcode read abundance (log10)” value was determined as 0.377.

Regarding “AGGAGCCCTTGGGTTCTAACCTGTTGCTC (site AGGAGCCCTTA)”, the “recombinant barcode read abundance (log10)” value amounted to 0.0844.

In the case of “AGGAGCCCTTGGGTTCTAACCTGTTGCTT (site AGGAGCCCTAA)”, the “recombinant barcode read abundance (log10)” value is 1.25.

For “AGGAGCCCTTGGGTTCTAACCTGTTGCTT (site AGGAGCCCTCA)”, the “recombinant barcode read abundance (log10)” value worked out at 0.0777.

Turning to “AGGAGCCCTTGGGTTCTAACCTGTTGCTT (site AGGAGCCCTGA)”, the “recombinant barcode read abundance (log10)” value was 0.0286.

“AGGAGCCCTTGGGTTCTAACCTGTTGCTT (site AGGAGCCCTTA)”: the “recombinant barcode read abundance (log10)” value was 0.271.

With “AGGAGCGCTTGGGTTCTAACCTGTTGCCT (site AGCAGCTCTAG)”, the “recombinant barcode read abundance (log10)” value was 0.105.

As to “AGGAGCGCTTGGGTTCTAACCTGTTGCCT (site AGGAGCGCTAG)”, the “recombinant barcode read abundance (log10)” value came to 1.95.

On to “AGGAGTCCTTGGGTTCTAACCTGTTGCAG (site AGGAGTCCTCT)”, for which the “recombinant barcode read abundance (log10)” value was 2.24.

As to “AGGAGTCCTTGGGTTCTAACCTGTTGCAG (site GTACAAGCTAG)”, the “recombinant barcode read abundance (log10)” value worked out at 0.239.

Consider “AGGCAGACTTGGGTTCTAACCTGTTGCCA (site AGGAAGACTTG)”, for which the “recombinant barcode read abundance (log10)” value was 0.0571.

Consider “AGGCAGACTTGGGTTCTAACCTGTTGCCA (site AGGCAGACTTG)”, for which the “recombinant barcode read abundance (log10)” value was 0.699.

As for “AGGCAGACTTGGGTTCTAACCTGTTGCCA (site AGGGAGACTTG)”, the “recombinant barcode read abundance (log10)” value was 0.216.

For “AGGCAGACTTGGGTTCTAACCTGTTGCCA (site AGGTAGACTTG)”, the “recombinant barcode read abundance (log10)” value was determined as 0.639.

In the case of “AGGCAGTCTTGGGTTCTAACCTGTTGCCT (site AGGCAGTCTAG)”, the “recombinant barcode read abundance (log10)” value is 0.444.

Take “AGGCAGTCTTGGGTTCTAACCTGTTGCCT (site AGGCCGTCTAC)”: the “recombinant barcode read abundance (log10)” value turned out to be 0.0845.

For the sequence “AGGCGCCCTTGGGTTCTAACCTGTTGCAA (site AGGCGCCCTAT)”, the “recombinant barcode read abundance (log10)” value came to 0.187.

Regarding “AGGCGCCCTTGGGTTCTAACCTGTTGCAA (site AGGCGCCCTCT)”, the “recombinant barcode read abundance (log10)” value turned out to be 0.0506.

For the sequence “AGGCGCCCTTGGGTTCTAACCTGTTGCAA (site AGGCGCCCTGT)”, the “recombinant barcode read abundance (log10)” value came out at 0.0953.

Regarding “AGGCGCCCTTGGGTTCTAACCTGTTGCAA (site AGGCGCCCTTT)”, the “recombinant barcode read abundance (log10)” value is 0.635.

On to “AGGCTGACTTGGGTTCTAACCTGTTGCCT (site AGGCTGACTAG)”, for which the “recombinant barcode read abundance (log10)” value amounted to 0.94.

On to “AGGCTGACTTGGGTTCTAACCTGTTGCCT (site AGGCTGCCTAG)”, for which the “recombinant barcode read abundance (log10)” value was 0.0128.

As for “AGGCTGACTTGGGTTCTAACCTGTTGCCT (site AGGCTGGCTAG)”, the “recombinant barcode read abundance (log10)” value was found to be 0.0298.

Consider “AGGCTGACTTGGGTTCTAACCTGTTGCCT (site AGGCTGTCTAG)”, for which the “recombinant barcode read abundance (log10)” value was 0.139.

For the sequence “AGGCTTACTTGGGTTCTAACCTGTTGCAG (site AGGCTTACTCT)”, the “recombinant barcode read abundance (log10)” value was 1.47.

For the sequence “AGGCTTACTTGGGTTCTAACCTGTTGCAG (site AGTCCTACTCT)”, the “recombinant barcode read abundance (log10)” value worked out at 0.0844.

On to “AGGGACTCTTGGGTTCTAACCTGTTGCCG (site AGGGACTCTCG)”, for which the “recombinant barcode read abundance (log10)” value amounted to 1.71.

For the sequence “AGGGACTCTTGGGTTCTAACCTGTTGCCG (site TGGGACACTCG)”, the “recombinant barcode read abundance (log10)” value came to 0.0423.

“AGGGAGACTTGGGTTCTAACCTGTTGCTC (site AGGGAGACTGA)”: the “recombinant barcode read abundance (log10)” value was 2.64.

Regarding “AGGGAGACTTGGGTTCTAACCTGTTGCTC (site CACTTTGCTAG)”, the “recombinant barcode read abundance (log10)” value worked out at 0.151.

Consider “AGGGATCCTTGGGTTCTAACCTGTTGCGG (site AAGTATCCTCC)”, for which the “recombinant barcode read abundance (log10)” value came out at 0.032.

For “AGGGATCCTTGGGTTCTAACCTGTTGCGG (site AGGGATCCTCC)”, the “recombinant barcode read abundance (log10)” value turned out to be 2.7.

Consider “AGGGCACCTTGGGTTCTAACCTGTTGCCA (site AGGGCACCTTG)”, for which the “recombinant barcode read abundance (log10)” value came out at 1.26.

With “AGGGCACCTTGGGTTCTAACCTGTTGCCA (site ATGGCACCTAG)”, the “recombinant barcode read abundance (log10)” value was 0.186.

Consider “AGGGCTTCTTGGGTTCTAACCTGTTGCTA (site ACGGCTTCTTA)”, for which the “recombinant barcode read abundance (log10)” value is 0.

On to “AGGGCTTCTTGGGTTCTAACCTGTTGCTA (site AGGGCTTCTTA)”, for which the “recombinant barcode read abundance (log10)” value came out at 1.87.

In the case of “AGGGGAGCTTGGGTTCTAACCTGTTGCGG (site AGGGGAGCTCC)”, the “recombinant barcode read abundance (log10)” value stood at 2.35.

Take “AGGGGAGCTTGGGTTCTAACCTGTTGCGG (site ATGGGAGCTTC)”: the “recombinant barcode read abundance (log10)” value came out at 0.0749.

Turning to “AGGGGATCTTGGGTTCTAACCTGTTGCCT (site AGGGGATCTAG)”, the “recombinant barcode read abundance (log10)” value was found to be 1.86.

In the case of “AGGGGATCTTGGGTTCTAACCTGTTGCCT (site AGTGGAGCTAG)”, the “recombinant barcode read abundance (log10)” value turned out to be 0.0518.

“AGGGGCACTTGGGTTCTAACCTGTTGCCG (site ACGGTCACTCG)”: the “recombinant barcode read abundance (log10)” value came to 0.104.

Regarding “AGGGGCACTTGGGTTCTAACCTGTTGCCG (site AGGGGCACTCG)”, the “recombinant barcode read abundance (log10)” value is 1.83.

As for “AGGGGCTCTTGGGTTCTAACCTGTTGCTG (site ACGGGCTCTAA)”, the “recombinant barcode read abundance (log10)” value was found to be 0.0932.

Consider “AGGGGCTCTTGGGTTCTAACCTGTTGCTG (site AGGGGCTCTCA)”, for which the “recombinant barcode read abundance (log10)” value is 3.01.

As to “AGGTAACCTTGGGTTCTAACCTGTTGCCT (site AGGTAACCTAG)”, the “recombinant barcode read abundance (log10)” value came out at 0.401.

For “AGGTAACCTTGGGTTCTAACCTGTTGCCT (site CGGTAACCTAG)”, the “recombinant barcode read abundance (log10)” value was determined as 0.23.

Regarding “AGGTAACCTTGGGTTCTAACCTGTTGCCT (site GGGTAACCTAG)”, the “recombinant barcode read abundance (log10)” value stood at 0.885.

Regarding “AGGTAACCTTGGGTTCTAACCTGTTGCCT (site TGGTAACCTAG)”, the “recombinant barcode read abundance (log10)” value was determined as 0.179.

As for “AGGTCAACTTGGGTTCTAACCTGTTGCCG (site AGGTCAACTCG)”, the “recombinant barcode read abundance (log10)” value turned out to be 0.0699.

Consider “AGGTCAACTTGGGTTCTAACCTGTTGCCG (site TAAGGTCCTAA)”, for which the “recombinant barcode read abundance (log10)” value came out at 0.0279.

As to “AGGTCACCTTGGGTTCTAACCTGTTGCCT (site AGGTCACCTAA)”, the “recombinant barcode read abundance (log10)” value stood at 0.0905.

On to “AGGTCACCTTGGGTTCTAACCTGTTGCCT (site AGGTCACCTAC)”, for which the “recombinant barcode read abundance (log10)” value stood at 0.897.

In the case of “AGGTCACCTTGGGTTCTAACCTGTTGCCT (site AGGTCACCTAG)”, the “recombinant barcode read abundance (log10)” value is 1.83.

On to “AGGTCACCTTGGGTTCTAACCTGTTGCCT (site AGGTCACCTAT)”, for which the “recombinant barcode read abundance (log10)” value was determined as 0.221.

The values are drawn from the supplement of paper PMC11208160.
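Note: IS621 recombinase and bridge RNA in Escherichia coli cells.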
